Results taken from paper PMC3689634, “Self-assembled peptide amphiphiles function as multivalent binder with increased hemagglutinin affinity” (BMC Biotechnology, 2013).
Entries after “also recorded” stand apart in the source; their conditions may differ.

Assays:
[1] = system: HA receptor (hemagglutinin); details: monovalent binding; cited from earlier work
[2] = system: hemagglutinin H5 (HA1 aa 17–338, A/chicken/Jilin/9/2004 (H5N1)); type: binding, influenza A virus (H5N1); details: pH 7.4

CC(=O)N[C@H]1[C@H]([C@H](O)[C@H](O)CO)OC(O)(C(=O)O)C[C@@H]1O (some centres unmarked) [SA, sialic acid]
association constant, single SA molecule to a single HA receptor [1]: 10^3 M^-1

C16-GSWGEW [negative control]
SPR binding signal to immobilised H5 (in words) [2]: no binding affinity; also recorded: no quantitative measurable signal changes
